Data as given in the SangsterLogP compilation.

Structure (SMILES)	logP
COc1ncc(-c2ccncc2)cc1C#N	2.02
N#Cc1cc(-c2ccncc2)cnc1OCCCO	1.63
COCCOc1ncc(-c2ccncc2)cc1C#N	1.96
COc1nc(C)c(-c2ccncc2)cc1C#N	2.41
N#Cc1cc(-c2ccncc2)cnc1OCCOCCO	1.5
Cc1nc(OCCO)c(C#N)cc1-c1ccncc1	1.83
COCCOc1nc(C)c(-c2ccccc2)cc1C#N	3.74
Cc1nc(OCCO)c(C#N)cc1-c1ccccc1	3.23
N#Cc1cc(-c2ccncc2)cnc1Oc1ccccc1	3.09
Cc1nc(OCCOCCO)c(C#N)cc1-c1ccncc1	1.81
COCCOc1nc(C)c(-c2ccncc2)cc1C#N	2.4
CC(O)COc1ncc(-c2ccncc2)cc1C#N (centres undefined)	1.65
N#Cc1cc(-c2ccncc2)cnc1OCC(O)CO (centres undefined)	0.76
CCOc1ncc(-c2ccncc2)cc1C#N	2.59
